# Activity calls are given as the source filed them.
# Key:
# Streptococcus = assay: Group A Streptococcus viability loss, dose response, counter-screen for streptokinase expression inhibitor project, luminescence, BacTiterGlo (AID 1915); format: functional, organism-based;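 further: potency for reduction of bacterial viability or growth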
# [1] = system: Streptococcus sp. 'group A'; assay: growth inhibition of control SK(-) GAS strain, dose response, counter-screen for streptokinase expression inhibitor project, luminescence, kanamycin, BacTiterGlo, confirmation (AID 1900); format: functional, organism-based
# [2] = control 3'UTR Renilla luciferase suppression, dose response, counter-screen for Shn3 inhibitor project, cell-based, Clone20-Shn3RL, cherry-picked (AID 624133); format: functional
# [3] = HepG2 cell cytotoxicity, dose response, cytotoxicity control for Shn3 inhibitor project, CellTiter-Glo, cherry-picked (AID 624134); format: functional, cell-based
# [4] = Shn3 3'UTR reporter inhibitors, dose response, cell-based, Clone20 osteoblasts, firefly luciferase, cherry-picked (AID 624132); format: functional;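 further: firefly luciferase luminescence from reporter carrying the Shn3 3'UTR in osteoblasts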
# Cytochrome P450 2D6 = Cytochrome P450 2D6 (Homo sapiens, UniProt P10635);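 further: CYP2D6 member of a cytochrome P450 panel assay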
# Cytochrome P450 3A4 = Cytochrome P450 3A4 (Homo sapiens, UniProt P08684);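 further: CYP3A4 tested as one member of a cytochrome P450 panel screen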
# Cytochrome P450 2C19 = Cytochrome P450 2C19 (Homo sapiens, UniProt P33261); assay: Cytochrome panel assay with activity outcomes. Panel member name: p450-cyp2c19 Compounds with AC50 equal or less than 10 uM are considered active; format: functional; details: read-out: AC50
# Cytochrome P450 2C9 = Cytochrome P450 2C9 (Homo sapiens, UniProt P11712)
# [5] = target: T1, Rac GTPase-activating protein 1 (Homo sapiens, UniProt Q9H0H5); assay: MgcRacGAP GTPase-activating activity inhibitors, confirmation, biochemical, ADP Hunter fluorescence, primary and confirmatory (AID 624330); format: functional
# T1 sequence (Q9H0H5 whole entry): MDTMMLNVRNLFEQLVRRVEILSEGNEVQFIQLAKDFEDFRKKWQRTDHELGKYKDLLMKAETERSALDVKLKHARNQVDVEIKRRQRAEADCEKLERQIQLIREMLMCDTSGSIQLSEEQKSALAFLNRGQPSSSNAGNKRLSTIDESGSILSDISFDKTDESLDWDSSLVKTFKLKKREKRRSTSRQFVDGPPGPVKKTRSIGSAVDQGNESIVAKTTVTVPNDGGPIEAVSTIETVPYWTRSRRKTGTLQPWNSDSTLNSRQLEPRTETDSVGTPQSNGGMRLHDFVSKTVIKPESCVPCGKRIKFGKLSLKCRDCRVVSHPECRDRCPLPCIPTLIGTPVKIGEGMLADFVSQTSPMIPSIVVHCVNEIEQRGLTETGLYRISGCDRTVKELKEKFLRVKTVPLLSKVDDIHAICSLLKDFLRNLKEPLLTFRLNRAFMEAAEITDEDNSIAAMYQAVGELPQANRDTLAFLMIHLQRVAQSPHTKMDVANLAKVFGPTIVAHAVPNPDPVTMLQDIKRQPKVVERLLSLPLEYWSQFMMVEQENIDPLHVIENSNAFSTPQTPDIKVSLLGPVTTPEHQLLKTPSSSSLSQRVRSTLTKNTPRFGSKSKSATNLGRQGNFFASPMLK
# [6] = Luminescence Cell-Based Dose Retest to Confirm Inhibitors of Cancer Stem Cells. [Related pubchem assays (depositor defined):AID2717, AID2721]; format: functional; details: Homo sapiens
# cells = format: functional
# [7] = target: T2, Corticotropin-releasing factor receptor 2/Corticotropin-releasing factor-binding protein (Homo sapiens, UniProt P24387+Q13324); assay: activators of CRF receptor 2 with binding protein – uHTS hits, confirmation (AID 602473); format: functional; details: read-out: EC50_Mean
# T2 sequence (Q13324 whole entry): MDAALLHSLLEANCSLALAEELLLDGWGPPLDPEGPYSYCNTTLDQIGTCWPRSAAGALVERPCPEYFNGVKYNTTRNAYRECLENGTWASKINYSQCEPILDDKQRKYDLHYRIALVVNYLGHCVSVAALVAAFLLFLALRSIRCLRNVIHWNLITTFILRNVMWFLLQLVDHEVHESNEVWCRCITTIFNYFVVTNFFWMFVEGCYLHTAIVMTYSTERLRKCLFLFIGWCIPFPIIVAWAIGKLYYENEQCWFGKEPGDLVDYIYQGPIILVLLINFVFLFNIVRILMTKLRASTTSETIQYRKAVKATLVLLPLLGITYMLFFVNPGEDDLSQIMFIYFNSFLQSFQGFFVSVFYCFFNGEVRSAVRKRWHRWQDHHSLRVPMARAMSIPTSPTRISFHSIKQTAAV
# T2 sequence (P24387 whole entry): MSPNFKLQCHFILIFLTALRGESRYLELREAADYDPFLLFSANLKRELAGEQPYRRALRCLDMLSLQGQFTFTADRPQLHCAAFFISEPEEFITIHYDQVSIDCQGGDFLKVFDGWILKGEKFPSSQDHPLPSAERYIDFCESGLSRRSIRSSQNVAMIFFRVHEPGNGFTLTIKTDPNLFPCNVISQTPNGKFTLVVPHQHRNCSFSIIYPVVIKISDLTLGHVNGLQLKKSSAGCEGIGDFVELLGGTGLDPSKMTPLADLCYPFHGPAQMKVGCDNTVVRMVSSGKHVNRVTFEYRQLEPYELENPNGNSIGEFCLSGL
# [8] = HEp-2 cell cytotoxicity, dose response, cytotoxicity control for RSV inhibitor project, HTS (AID 2410); format: functional; details: human respiratory syncytial virus
# [9] = growth suppression of PTEN-null colon cells, dose response, cell-based, HCT116 PTEN knockout (AID 1047); format: functional;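 further: HCT116 colon tumor cells with PTEN knocked out; cells exposed to compound for 60 hours before readout; potency for loss of cell viability measured by luminescence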
# [10] = growth suppression of beta-catenin-knockout colon cells, dose response, cell-based, HCT116, human colon tumor (AID 1045); format: functional;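 further: HCT116 colon tumor cells with beta catenin knocked out; cells exposed to compound for 60 hours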
# [11] = inhibitors of intracellular T. cruzi replication, confirmation, NIH3T3 host cells, beta-gal luminescence (AID 2044); format: functional, cell-based;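 further: intracellular parasites grown in NIH/3T3 mouse fibroblasts as host cells; luminescent beta-galactosidase reporter signal from transgenic T. cruzi replicating inside host cells; inhibitors lower the luminescence signal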
# [12] = cytotoxicity toward NIH3T3 fibroblasts, dose response, counter-screen, cell-based, ATP luminescence, mouse fibroblasts (AID 2010); format: functional;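 further: cells exposed to compound for about 90 hours before reading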
# Sequence of Cytochrome P450 2D6 (P10635 whole entry): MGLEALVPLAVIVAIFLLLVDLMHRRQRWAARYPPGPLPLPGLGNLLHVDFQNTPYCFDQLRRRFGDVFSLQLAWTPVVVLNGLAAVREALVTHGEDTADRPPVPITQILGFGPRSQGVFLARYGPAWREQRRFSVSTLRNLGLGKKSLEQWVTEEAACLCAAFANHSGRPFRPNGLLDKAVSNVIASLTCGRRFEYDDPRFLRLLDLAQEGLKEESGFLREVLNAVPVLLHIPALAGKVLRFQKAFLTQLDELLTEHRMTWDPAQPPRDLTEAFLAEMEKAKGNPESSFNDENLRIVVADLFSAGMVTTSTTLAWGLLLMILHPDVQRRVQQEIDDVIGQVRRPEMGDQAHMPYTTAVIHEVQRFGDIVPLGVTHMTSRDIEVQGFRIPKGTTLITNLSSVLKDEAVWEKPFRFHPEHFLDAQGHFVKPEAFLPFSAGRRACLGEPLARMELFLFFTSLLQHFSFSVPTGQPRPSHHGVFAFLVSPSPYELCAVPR
# Sequence of Cytochrome P450 3A4 (P08684 whole entry): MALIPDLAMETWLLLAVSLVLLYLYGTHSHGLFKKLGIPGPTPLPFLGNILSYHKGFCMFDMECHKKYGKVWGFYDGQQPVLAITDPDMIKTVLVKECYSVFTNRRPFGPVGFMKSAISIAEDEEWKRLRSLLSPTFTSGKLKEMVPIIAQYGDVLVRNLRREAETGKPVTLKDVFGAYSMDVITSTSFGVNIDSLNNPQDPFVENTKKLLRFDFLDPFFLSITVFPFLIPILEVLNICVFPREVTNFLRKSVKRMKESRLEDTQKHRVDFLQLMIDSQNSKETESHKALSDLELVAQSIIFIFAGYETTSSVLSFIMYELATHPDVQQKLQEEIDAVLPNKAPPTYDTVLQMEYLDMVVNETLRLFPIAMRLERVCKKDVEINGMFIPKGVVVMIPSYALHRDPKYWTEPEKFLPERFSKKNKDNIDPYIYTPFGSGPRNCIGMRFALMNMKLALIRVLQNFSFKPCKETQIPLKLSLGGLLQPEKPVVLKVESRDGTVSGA
# Sequence of Cytochrome P450 2C9 (P11712 whole entry): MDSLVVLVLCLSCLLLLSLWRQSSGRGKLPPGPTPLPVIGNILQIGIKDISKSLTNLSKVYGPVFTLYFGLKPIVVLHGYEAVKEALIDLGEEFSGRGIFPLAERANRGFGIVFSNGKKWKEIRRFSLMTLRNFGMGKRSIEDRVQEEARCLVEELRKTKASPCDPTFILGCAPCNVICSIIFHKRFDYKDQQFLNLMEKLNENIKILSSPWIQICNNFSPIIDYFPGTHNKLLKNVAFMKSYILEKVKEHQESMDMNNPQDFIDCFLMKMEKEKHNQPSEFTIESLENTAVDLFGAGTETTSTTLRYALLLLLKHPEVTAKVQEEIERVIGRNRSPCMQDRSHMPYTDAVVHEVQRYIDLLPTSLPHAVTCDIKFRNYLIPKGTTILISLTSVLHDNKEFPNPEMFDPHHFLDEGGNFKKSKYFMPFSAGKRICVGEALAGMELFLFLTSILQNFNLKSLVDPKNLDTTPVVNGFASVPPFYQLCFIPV
# Sequence of Cytochrome P450 2C19 (P33261 whole entry): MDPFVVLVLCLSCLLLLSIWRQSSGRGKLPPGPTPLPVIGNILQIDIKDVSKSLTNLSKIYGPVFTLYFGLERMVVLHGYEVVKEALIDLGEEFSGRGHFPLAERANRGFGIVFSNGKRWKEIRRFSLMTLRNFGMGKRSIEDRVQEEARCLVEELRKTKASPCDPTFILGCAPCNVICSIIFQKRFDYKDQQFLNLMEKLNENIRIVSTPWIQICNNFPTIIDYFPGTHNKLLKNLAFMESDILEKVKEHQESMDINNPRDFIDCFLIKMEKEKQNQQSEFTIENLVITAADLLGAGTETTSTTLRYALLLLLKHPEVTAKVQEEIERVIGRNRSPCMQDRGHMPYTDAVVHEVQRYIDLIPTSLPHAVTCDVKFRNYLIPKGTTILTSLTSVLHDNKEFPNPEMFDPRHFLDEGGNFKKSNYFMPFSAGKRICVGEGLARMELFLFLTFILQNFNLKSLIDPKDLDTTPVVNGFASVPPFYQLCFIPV
compound,measurement,setting,value
Cc1nn2c(COc3ccc(NC(=O)c4ccccc4)cc3)nnc2c2ccccc12,EC50,Streptococcus,0.859 µM (active)
same,EC50,[1],0.854 µM (active)
COc1cc(OC)c(OC)cc1CNc1cc(C)ccc1OC,AC50,[2],7.92 µM (active)
same,AC50,[3],47.2 µM (active)
same,AC50,[4],18.1 µM (active)
C/C=C1\C[N@@+]2(C)CC[C@@]34C(=C(C=O)[C@H]1C[C@H]32)Nc1ccccc14,AC50,Cytochrome P450 2D6,6.31 µM (inconclusive)
same,AC50,Cytochrome P450 3A4,0.00126 µM (inconclusive)
CC(C)c1nccn1Cc1ccc(Cl)cc1Cl,AC50,Cytochrome P450 2D6,3.16 µM (inconclusive)
same,AC50,Cytochrome P450 2C19,2 µM (inconclusive)
CCNc1ncc2nc(-c3cn(C)c4ccccc34)c(=O)n(C)c2n1,AC50,Cytochrome P450 2C9,39.8 µM (inconclusive)
same,AC50,Cytochrome P450 2D6,12.6 µM (inconclusive)
same,AC50,Cytochrome P450 3A4,10 µM (inconclusive)
O=C(c1ccco1)N1CCC[C@@]2(CCN(c3ccncc3)C2)C1,AC50,Cytochrome P450 2C9,15.8 µM (inconclusive)
same,AC50,Cytochrome P450 2D6,25.1 µM (inconclusive)
O=C(Cn1c(C(=O)NCc2ccco2)cc2sccc21)c1ccccc1,IC50,[5],139 µM (active)
CC(C)=CCc1c(O)ccc(C(=O)Cc2ccccc2)c1O,AC50,[6],3.82 µM (active)
COc1ccccc1C1=NOC(COC(=O)c2ccc([N+](=O)[O-])cc2)C1 (centres undefined),IC50,cells,3.93 µM (active)
COc1ccc(-c2ncc3ccccn23)cc1OC,IC50,[5],126 µM (active)
O=C(OCC(=O)C12CC3CC(CC(C3)C1)C2)c1ccccn1,IC50,cells,37.8 µM (active)
COC(=O)[C@@H](NC(=O)c1cc(COc2cncc(Cl)c2)on1)c1ccccc1,IC50,cells,5.52 µM (active)
O=S(=O)(NCC1(N2CCOCC2)CCCCC1)c1ccc(Cl)cc1C(F)(F)F,EC50,[7],5.65 µM (active)
Cc1cccc(Oc2ncc(-c3ccc(Cl)cc3)cn2)c1C,AC50,Cytochrome P450 2D6,17.8 µM (inconclusive)
same,AC50,Cytochrome P450 3A4,25.1 µM (inconclusive)
CCCCNc1c(-c2ccc(SC(C)CC)cc2)nc2ccccn12 (centres undefined),AC50,[6],4.29 µM (active)
CN(c1cccc(Cl)c1)S(=O)(=O)c1cccc(C(=O)NCc2ccncc2)c1,AC50,[2],0.664 µM (active)
same,AC50,[3],61.5 µM (active)
same,AC50,[4],< 0.26 µM (active)
Cc1cccc(-c2nc(Nc3cccc(O)c3)c3ccccc3n2)c1,AC50,[6],3.88 µM (active)
Oc1nc2ccc(Br)cc2c(-c2ccccc2)c1CN1CCOCC1,CC50,[8],48.4 µM (active)
Cc1ccccc1CN(C)CCc1ccccn1,IC50,[5],123 µM (active)
Cc1nn(Cc2c(F)c(F)c(F)c(F)c2F)c(C)c1NC(=O)c1c(-c2ccccc2)nn(-c2ccccc2)c1C,EC50,[9],21.9 µM (active)
same,EC50,[10],25.8 µM (active)
CCOC(=O)c1c(NC(=O)c2nn(CC)cc2Br)sc(C)c1C,AC50,[4],11 µM (active)
Cc1cc(C(=O)COc2ccc(Cl)cc2Br)c(C)n1C,CC50,[8],> 50 µM (active)
CCOC(=O)c1sc(NC(=O)Nc2ccccc2Cl)cc1C,AC50,[6],5.37 µM (active)
same,EC50,[11],2.26 µM (active)
same,EC50,[12],> 30 µM (not active)
COc1ccccc1NCC(O)Cn1c2ccccc2c2ccccc21 (centres undefined),EC50,[9],34.3 µM (active)
same,EC50,[10],43.6 µM (active)
